Experimental data as given in patent US10226448B2, “3-(1H-pyrrolo[3,2-C]pyridin-2-yl)-1H-pyrazolo[3,4-B]pyridines and therapeutic uses thereof” (Samumed, LLC, priority 2015, dated 2019).
pEC50: −log10 of the molar value.

Key:
Type in all cases: cell-based
[1] = tested on: primary human mesenchymal stem cells (hMSCs); experiment: Induction of chondrogenesis in primary human mesenchymal stem cells (chondrogenic nodules, Rhodamine B / Nile Red); conditions: 6 days; for Emax: relative to TGF-β3 (10 ng/mL) positive control, read-out: Max. Activity as % TGF-β3 activity
From the text: Representative compounds were screened using primary human mesenchymal stem cells (hMSCs) to determine their ability to induce chondrogenesis (process by which cartilage is developed).
Human Mesenchymal Stem Cell Culture: Primary human mesenchymal stem cells (hMSCs) were purchased from Lonza (Walkersville, Md.) and expanded in Mesenchymal Stem Cell Growth Media (Lonza). Cells between passage 3 and 6 were used for the experiments.
To image chondrogenic nodules, the cells were fixed using 4% formaldehyde (Electron Microscopy Sciences), and stained with 2 μg/mL Rhodamine B (Sigma-Aldrich) and 20 μM Nile Red (Sigma-Aldrich) [Johnson K., et. al, A Stem Cell-Based Approach to Cartilage Repair, Science, (2012). […] Number of nodules in each well was normalized to the average of 3 DMSO treated wells on the same plate using Excel (Microsoft Inc.). The normalized averages (fold change over DMSO) of 3 replicate wells for each compound concentration were calculated. Due to solubility limitations of some of the compounds, curve fitting was incomplete leading to inaccurate EC50 determinations.
Using TGF-β3 as a positive control, the concentration of representative compounds required to induce 50% levels of chondrogenesis is reported. In addition, the maximum activity of each compound and the respective dose that each compound reached maximum chondrogenesis activity is reported.

[2] = tested on: LL29 cells (primary human fibroblasts derived from IPF patients), α-smooth muscle actin; experiment: Inhibition of the fibrotic process: αSMA staining in TGF-β1 treated primary human fibroblasts from IPF patients (LL29 cells); conditions: Fibroblast; for pEC50: 96 h, LL29 cells, TGF-β1 20 ng/mL, 4 days, % αSMA positive cells; for inhibition at 10 µM: read-out: percent inhibition at 10 μM
Protocol: Representative compounds were screened using primary human fibroblasts (derived from IPF patients) treated with TGF-β1 to determine their ability to inhibit the fibrotic process.
LL29 cells are plated at 1,500 cells/well in 80 μL/well F12 medium supplemented with 1% Fetal Bovine Serum. […] Wells treated with TGF-β1 and containing DMSO were used as controls. […] Following incubation for 4 days, SYTOX green nucleic acid stain (Life Technologies [Thermo Fisher Scientific]) was added to the wells at a final concentration of 1 μM and incubated at room temperature for 30 min.

[3] = tested on: Wnt activity (Sp5-Luc reporter, TCF/LEF binding sites) in SW480 colon carcinoma cells; experiment: Wnt activity screening assay: Sp5-Luc reporter gene assay in SW480 cells; conditions: Homo sapiens; for pEC50: Sp5-Luc reporter, SW480 cells, overnight incubation; for inhibition at 10 µM: SW480, read-out: percent inhibition at 10 μM
From the text: The screening assay for Wnt activity is described as follows. Reporter cell lines can be generated by stably transducing cancer cell lines (e.g., colon cancer) or primary cells (e.g., IEC-6 intestinal cells) with a lentiviral construct that includes a Wnt-responsive promoter driving expression of the firefly luciferase gene.
SW480 colon carcinoma cells were transduced with a lentiviral vector expressing luciferase with a human Sp5 promoter consisting of a sequence of eight TCF/LEF binding sites. SW480 cells stably expressing the Sp5-Luc reporter gene and a hygromycin resistance gene were selected by treatment with 150 μg/mL of hygromycin for 7 days. These stably transduced SW480 cells were expanded in cell culture and used for all further screening activities. […] For Sp5-Luc reporter gene assays, the cells were plated at 4,000 cells/well in 384-well plates with medium containing 1% fetal bovine serum and incubated overnight at 37° C. and 5% CO2. Following incubation, 20 μl of BrightGlo luminescence reagent (Promega) was added to each well of the 384-well assay plates. The plates were placed on an orbital shaker for 2 min and then luminescence was quantified using the Envision (Perkin Elmer) plate reader. Readings were normalized to DMSO only treated cells, and normalized activities were utilized for EC50 calculations using the dose-response log (inhibitor) vs. response variable slope (four parameters) nonlinear regression feature available in GraphPad Prism 5.0 (or Dotmatics).

[4] = tested on: SW480 colon cancer cells; experiment: Cell viability assay (CellTiter-Blue) in SW480 colon cancer cells; conditions: Homo sapiens; for pEC50: 96 h, SW480 cell viability, four days, CellTiter-Blue; for inhibition at 10 µM: SW480, read-out: percent inhibition at 10 μM
Protocol: Representative compounds were screened using the following assay procedure to assess the effect on cell viability as described below.
Approximately 2×10^3 SW480 colon cancer cells were seeded into each well and allowed to incubate in the presence or absence of compound for four days at 37° C./5% CO2. Eight replicates of DMSO-treated cells served as controls and cells treated with compound were performed in duplicate.
After incubation, 20 μL of CellTiter-Blue (Promega) was added to each well allowed to incubate for approximately 3 hours. This reagent was a buffered solution which contains resazurin, metabolically active cells were able to reduce rezarurin (blue) into resorufin (pink) which was highly fluorescent. This measured fluorescence was used as a readout for cell viability.

[5] = tested on: IL-6 in THP-1 cells; experiment: IL-6 inhibition in LPS-stimulated THP-1 human monocyte cells (HTRF); conditions: for pEC50: IL-6 inhibition, LPS-stimulated THP-1 cells, HTRF, 10-point dose-response starting from 10 μM; for inhibition at 10 µM: THP-1, read-out: percentage in parentheses beside EC50 >10
Protocol: Compound Screening: THP-1 cells were cultured in basal media with 1% FBS for 24 hours before the start of the assay. […] THP-1 cells were plated at 5000 cells/well in the 384-well plates and incubated at 37° C. for 2 h. 500 ng/mL of LPS was added after 2 hours and cells were incubated for another 22 hours at 37° C. Plates were spun in a centrifuge for 1 minute at […] and a mixture of anti-IL6 XL665, and anti-IL6 Cryptate diluted in reconstitution buffer (Cisbio Inc.) was added to each well. Following incubation for 3 hrs at room temperature, Homogeneous Time-Resolved Fluorescence (HTRF) was measured using the Envision (Perkin Elmer) at 665 nm and […]. The ratio of fluorescence at 665 nm to 620 nm was used as a readout for IL6 quantification. All samples were processed in duplicate. Readings were normalized to DMSO treated cells and normalized activities were utilized for EC50 calculations using the dose-response log (inhibitor) vs. response variable slope (four parameters) nonlinear regression feature available in GraphPad Prism 5.0 (or Dotmatics).

EC50 ([1]; concentration required to induce 50% levels of chondrogenesis vs TGF-β3, read-out: Conc (nM) of 50% TGF-β3 activity) [nM] | pEC50 [3] | pEC50 [4] | pEC50 [5] | Compound | Emax [1] [%] | pEC50 [2] | inhibition at 10 µM [2] [%] | inhibition at 10 µM [3] [%] | inhibition at 10 µM [4] [%] | inhibition at 10 µM [5] [%]
– | < 5.00 | < 5.00 | < 5.00 | c1cc(-c2cnc3[nH]nc(-c4cc5c(N6CCCCC6)nccc5[nH]4)c3c2)ccn1 [Compound 186, 3-(4-(Piperidin-1-yl)-1H-pyrrolo[3,2-c]pyridin-2-yl)-5-(pyridin-4-yl)-1H-pyrazolo[3,4-b]pyridine] | – | < 5.00 | 0 | 30.8 | 11.1 | 25.4
– | 5.44 | 5.50 | 6.40 | CN1CCN(c2nccc3[nH]c(-c4n[nH]c5ncc(-c6cncc(CN7CCC(F)(F)C7)c6)cc45)cc23)CC1 [Compound 250, 5-(5-((3,3-Difluoropyrrolidin-1-yl)methyl)pyridin-3-yl)-3-(4-(4-methylpiperazin-1-yl)-1H-pyrrolo[3,2-c]pyridin-2-yl)-1H-pyrazolo[3,4-b]pyridine] | – | 5.31 | – | – | – | –
– | < 5.00 | < 5.00 | < 5.00 | CN1CCN(c2nccc3[nH]c(-c4n[nH]c5ncc(-c6cncnc6)cc45)cc23)CC1 [Compound 251, 3-(4-(4-Methylpiperazin-1-yl)-1H-pyrrolo[3,2-c]pyridin-2-yl)-5-(pyrimidin-5-yl)-1H-pyrazolo[3,4-b]pyridine] | – | < 5.00 | 24.7 | 17.8 | 8.3 | 35.7
– | 5.39 | 5.63 | < 5.00 | c1cc2[nH]c(-c3n[nH]c4ncc(-c5cncc(CN6CCCC6)c5)cc34)cc2c(-c2ccoc2)n1 [Compound 322, 3-(4-(Furan-3-yl)-1H-pyrrolo[3,2-c]pyridin-2-yl)-5-(5-(pyrrolidin-1-ylmethyl)pyridin-3-yl)-1H-pyrazolo[3,4-b]pyridine] | – | 5.66 | – | – | – | 29.4
– | 5.40 | 5.45 | 5.14 | c1cc2[nH]c(-c3n[nH]c4ncc(-c5cncc(OC6CCCCC6)c5)cc34)cc2c(N2CCCCC2)n1 [Compound 607, 5-(5-(Cyclohexyloxy)pyridin-3-yl)-3-(4-(piperidin-1-yl)-1H-pyrrolo[3,2-c]pyridin-2-yl)-1H-pyrazolo[3,4-b]pyridine] | – | 5.70 | – | – | – | –
– | < 5.00 | < 5.00 | < 5.00 | CN1CCN(c2nccc3[nH]c(-c4n[nH]c5ncc(-c6cncc(NC(=O)CC7CCNCC7)c6)cc45)cc23)CC1 [Compound 641, N-(5-(3-(4-(4-Methylpiperazin-1-yl)-1H-pyrrolo[3,2-c]pyridin-2-yl)-1H-pyrazolo[3,4-b]pyridin-5-yl)pyridin-3-yl)-2-(piperidin-4-yl)acetamide] | – | < 5.00 | 0 | 0 | 6.5 | 7.6

Second part, the compound before the results:

Compound | EC50 ([1]; concentration required to induce 50% levels of chondrogenesis vs TGF-β3, read-out: Conc (nM) of 50% TGF-β3 activity) [nM] | pEC50 [3] | pEC50 [4] | pEC50 [5] | Emax [1] [%] | pEC50 [2] | inhibition at 10 µM [2] [%] | inhibition at 10 µM [3] [%] | inhibition at 10 µM [4] [%] | inhibition at 10 µM [5] [%]
CCC(=O)Nc1cncc(-c2cnc3[nH]nc(-c4cc5c(-c6cccc(F)c6)nccc5[nH]4)c3c2)c1 [Compound 1, N-(5-(3-(4-(3-Fluorophenyl)-1H-pyrrolo[3,2-c]pyridin-2-yl)-1H-pyrazolo[3,4-b]pyridin-5-yl)pyridin-3-yl)propionamide] | 300 | 6.57 | 6.20 | 6.62 | 114 | 6.22 | – | – | – | –
Fc1cccc(-c2nccc3[nH]c(-c4n[nH]c5ncc(-c6cccnc6)cc45)cc23)c1 [Compound 4, 3-(4-(3-Fluorophenyl)-1H-pyrrolo[3,2-c]pyridin-2-yl)-5-(pyridin-3-yl)-1H-pyrazolo[3,4-b]pyridine] | – | 6.33 | 5.49 | 7.05 | 50 | 6.36 | – | – | – | –
c1ccc(-c2cnc3[nH]nc(-c4cc5cnccc5[nH]4)c3c2)nc1 [Compound 280, 5-(Pyridin-2-yl)-3-(1H-pyrrolo[3,2-c]pyridin-2-yl)-1H-pyrazolo[3,4-b]pyridine] | – | 5.50 | 5.94 | 5.43 | – | 5.41 | – | – | – | –
FC1(F)CCN(Cc2cncc(-c3cnc4[nH]nc(-c5cc6c(-c7ccoc7)nccc6[nH]5)c4c3)c2)C1 [Compound 334, 5-(5-((3,3-Difluoropyrrolidin-1-yl)methyl)pyridin-3-yl)-3-(4-(furan-3-yl)-1H-pyrrolo[3,2-c]pyridin-2-yl)-1H-pyrazolo[3,4-b]pyridine] | – | 6.70 | 6.43 | 6.99 | – | 6.04 | – | – | – | –
Cc1ccncc1-c1cnc2[nH]nc(-c3cc4c(-c5cccs5)nccc4[nH]3)c2c1 [Compound 341, 5-(4-Methylpyridin-3-yl)-3-(4-(thiophen-2-yl)-1H-pyrrolo[3,2-c]pyridin-2-yl)-1H-pyrazolo[3,4-b]pyridine] | – | 5.78 | 5.96 | 5.29 | – | 6.48 | – | – | – | –
CS(=O)(=O)NCc1cc(F)cc(-c2nccc3[nH]c(-c4n[nH]c5ncc(-c6cncc(CNCc7ccccc7)c6)cc45)cc23)c1 [Compound 500, N-(3-(2-(5-(5-((Benzylamino)methyl)pyridin-3-yl)-1H-pyrazolo[3,4-b]pyridin-3-yl)-1H-pyrrolo[3,2-c]pyridin-4-yl)-5-fluorobenzyl)methanesulfonamide] | – | < 5.00 | < 5.00 | < 5.00 | – | < 5.00 | 18.3 | 19.1 | 23.4 | 31.3
Fc1cccc(-c2nccc3[nH]c(-c4n[nH]c5ncc(C6CCNCC6)cc45)cc23)c1 [Compound 505, 3-(4-(3-Fluorophenyl)-1H-pyrrolo[3,2-c]pyridin-2-yl)-5-(piperidin-4-yl)-1H-pyrazolo[3,4-b]pyridine] | – | 5.41 | 5.35 | 5.46 | – | 5.26 | – | – | – | –
Oc1cncc(-c2cnc3[nH]nc(-c4cc5c(-c6cccs6)nccc5[nH]4)c3c2)c1 [Compound 709, 5-(3-(4-(Thiophen-2-yl)-1H-pyrrolo[3,2-c]pyridin-2-yl)-1H-pyrazolo[3,4-b]pyridin-5-yl)pyridin-3-ol] | – | 6.11 | 5.61 | < 5.00 | – | 6.54 | – | – | – | 48.9
